Measurements taken from patent US20230348442A1, “GALECTIN-3 INHIBITING 2-HYDROXYCYCLOALKANE-1-CARBAMOYL DERIVATIVES” (Idorsia Pharmaceuticals Ltd, priority 2020, published 2023).

Molecular target: human Gal-3 (hGal-3) (Homo sapiens (Human), UniProt P17931)
Test: competitive binding assay: binding of biotinylated hGal-3 to microplate-adsorbed asialofetuin (ASF), spectrophotometric
Settings: Activity on hGal-3; mean values of several measurements
Description: Evaluation of Compound Inhibitory Activity (IC50)
The inhibitory activity of compounds is determined in competitive binding assays. This spectrophotometric assay measures the binding of biotinylated human Gal-3 (hGal-3) or human Gal-1 (hGal-1), respectively, to a microplate-adsorbed glycoprotein, asialofetuin (ASF) (Proc Natl Acad Sci USA. 2013 Mar. 26; 110(13):5052-7.). Alternatively, and preferably, a human Gal-1 version in which all six cysteines are substituted by serines may be used.
Briefly, compounds are serially diluted in DMSO (working dilutions). ASF-coated 384 well plates are supplemented with 22.8 μL/well of biotinylated hGal-3 or hGal-1 in assay buffer (i.e. 300-1000 ng/mL biotinylated hGal-3 or hGal-1) to which 1.2 μL of compound working dilutions are added and mixed.
Plates are incubated for 3 hours at 4° C., then washed with cold assay buffer (3×50 uL), incubated for 1 hour with 25 μL/well of a streptavidin-peroxidase solution (diluted in assay buffer to 80 ng/mL) at 4° C., followed by further washing steps with assay buffer (3×50 uL). Finally, 25 μL/well of ABTS substrate is added.
The calculated IC50 values may fluctuate depending on the daily assay performance. Fluctuations of this kind are known to those skilled in the art. IC50 values from several measurements are given as mean values.

human Gal-3 (hGal-3), sequence (P17931 whole entry): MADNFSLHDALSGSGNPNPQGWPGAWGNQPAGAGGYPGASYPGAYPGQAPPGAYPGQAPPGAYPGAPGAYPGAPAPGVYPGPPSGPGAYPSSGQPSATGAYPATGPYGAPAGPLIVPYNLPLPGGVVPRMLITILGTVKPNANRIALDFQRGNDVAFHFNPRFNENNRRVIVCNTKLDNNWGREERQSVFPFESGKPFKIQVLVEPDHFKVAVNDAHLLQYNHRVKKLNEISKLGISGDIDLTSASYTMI

IC50 | Structure (SMILES)
33.4 nM | CO[C@@H]1[C@@H](n2cc(-c3cc(F)c(F)c(Cl)c3)nn2)[C@@H](O)[C@@H](CO)O[C@H]1C(=O)N(c1cc(Cl)cc(C#N)c1)[C@H]1CCC[C@@H]1O [Example 1.7.4, (2R,3R,4S,5R,6R)-4-(4-(3-chloro-4,5-difluorophenyl)-1H-1,2,3-triazol-1-yl)-N-(3-chloro-5-cyanophenyl)-5-hydroxy-N-((1S,2S)-2-hydroxycyclopentyl)-6-(hydroxymethyl)-3-methoxytetrahydro-2H-pyran-2-carboxamide]
75.9 nM | CO[C@@H]1[C@@H](n2cc(-c3ccc(Cl)c(Cl)c3)nn2)[C@@H](O)[C@@H](CO)O[C@H]1C(=O)N(c1cc(Cl)cc(C#N)c1)[C@H]1CCC[C@@H]1O [Example 1.8.4, (2R,3R,4S,5R,6R)-N-(3-chloro-5-cyanophenyl)-4-(4-(3,4-dichlorophenyl)-1H-1,2,3-triazol-1-yl)-5-hydroxy-N-((1S,2S)-2-hydroxycyclopentyl)-6-(hydroxymethyl)-3-methoxytetrahydro-2H-pyran-2-carboxamide]
330 nM | CO[C@@H]1[C@@H](n2cc(-c3ccc(Cl)c(Cl)c3)nn2)[C@@H](O)[C@@H](CO)O[C@H]1C(=O)N(c1cc(Cl)cc(C#N)c1)[C@@H]1CCC[C@H]1O [Example 1.8.4R, (2R,3R,4S,5R,6R)-N-(3-chloro-5-cyanophenyl)-4-(4-(3,4-dichlorophenyl)-1H-1,2,3-triazol-1-yl)-5-hydroxy-N-((1R,2R)-2-hydroxycyclopentyl)-6-(hydroxymethyl)-3-methoxytetrahydro-2H-pyran-2-carboxamide]
40.8 nM | CO[C@@H]1[C@@H](n2cc(-c3ccc(Cl)c(Cl)c3)nn2)[C@@H](O)[C@@H](CO)O[C@H]1C(=O)N(c1cc(Br)cc(C#N)c1)[C@H]1CCC[C@@H]1O [Example 1.8.5, (2R,3R,4S,5R,6R)-N-(3-bromo-5-cyanophenyl)-4-(4-(3,4-dichlorophenyl)-1H-1,2,3-triazol-1-yl)-5-hydroxy-N-((1S,2S)-2-hydroxycyclopentyl)-6-(hydroxymethyl)-3-methoxytetrahydro-2H-pyran-2-carboxamide]
58.3 nM | CO[C@@H]1[C@@H](n2cc(-c3cc(F)cc(Br)c3)nn2)[C@@H](O)[C@@H](CO)O[C@H]1C(=O)N(c1cc(Cl)cc(C#N)c1)[C@H]1CCC[C@@H]1O [Example 1.10.4, (2R,3R,4S,5R,6R)-4-(4-(3-bromo-5-fluorophenyl)-1H-1,2,3-triazol-1-yl)-N-(3-chloro-5-cyanophenyl)-5-hydroxy-N-((1S,2S)-2-hydroxycyclopentyl)-6-(hydroxymethyl)-3-methoxytetrahydro-2H-pyran-2-carboxamide]
508 nM | CO[C@@H]1[C@@H](n2cc(-c3cc(F)cc(Br)c3)nn2)[C@@H](O)[C@@H](CO)O[C@H]1C(=O)N(c1cc(Br)cc(C#N)c1)[C@@H]1CCC[C@H]1O [Example 1.10.5R, (2R,3R,4S,5R,6R)-N-(3-bromo-5-cyanophenyl)-4-(4-(3-bromo-5-fluorophenyl)-1H-1,2,3-triazol-1-yl)-5-hydroxy-N-((1R,2R)-2-hydroxycyclopentyl)-6-(hydroxymethyl)-3-methoxytetrahydro-2H-pyran-2-carboxamide]
157 nM | CO[C@@H]1[C@@H](n2cc(-c3cc(F)cc(Br)c3)nn2)[C@@H](O)[C@@H](CO)O[C@H]1C(=O)N(c1cc(C)cc(C#N)c1)[C@H]1CCC[C@@H]1O [Example 1.10.8, (2R,3R,4S,5R,6R)-4-(4-(3-bromo-5-fluorophenyl)-1H-1,2,3-triazol-1-yl)-N-(3-cyano-5-methylphenyl)-5-hydroxy-N-((1S,2S)-2-hydroxycyclopentyl)-6-(hydroxymethyl)-3-methoxytetrahydro-2H-pyran-2-carboxamide]
1120 nM | CO[C@@H]1[C@@H](n2cc(-c3cc(F)cc(Br)c3)nn2)[C@@H](O)[C@@H](CO)O[C@H]1C(=O)N(c1cc(C)cc(C#N)c1)[C@@H]1CCC[C@H]1O [Example 1.10.8R, (2R,3R,4S,5R,6R)-4-(4-(3-bromo-5-fluorophenyl)-1H-1,2,3-triazol-1-yl)-N-(3-cyano-5-methylphenyl)-5-hydroxy-N-((1R,2R)-2-hydroxycyclopentyl)-6-(hydroxymethyl)-3-methoxytetrahydro-2H-pyran-2-carboxamide]
174 nM | COc1cc(C#N)cc(N(C(=O)[C@@H]2O[C@H](CO)[C@H](O)[C@H](n3cc(-c4cc(F)cc(Br)c4)nn3)[C@H]2OC)[C@H]2CCC[C@@H]2O)c1 [Example 1.10.9, (2R,3R,4S,5R,6R)-4-(4-(3-bromo-5-fluorophenyl)-1H-1,2,3-triazol-1-yl)-N-(3-cyano-5-methoxyphenyl)-5-hydroxy-N-((1S,2S)-2-hydroxycyclopentyl)-6-(hydroxymethyl)-3-methoxytetrahydro-2H-pyran-2-carboxamide]
1200 nM | COc1cc(C#N)cc(N(C(=O)[C@@H]2O[C@H](CO)[C@H](O)[C@H](n3cc(-c4cc(F)cc(Br)c4)nn3)[C@H]2OC)[C@@H]2CCC[C@H]2O)c1 [Example 1.10.9R, (2R,3R,4S,5R,6R)-4-(4-(3-bromo-5-fluorophenyl)-1H-1,2,3-triazol-1-yl)-N-(3-cyano-5-methoxyphenyl)-5-hydroxy-N-((1R,2R)-2-hydroxycyclopentyl)-6-(hydroxymethyl)-3-methoxytetrahydro-2H-pyran-2-carboxamide]

Continued, compound first:

Structure (SMILES) | IC50
CO[C@@H]1[C@@H](n2cc(-c3cc(F)c(F)c(Cl)c3)nn2)[C@@H](O)[C@@H](CO)O[C@H]1C(=O)N(c1cc(Cl)cc(C#N)c1)[C@@H]1CCC[C@H]1O [Example 1.7.4R, (2R,3R,4S,5R,6R)-4-(4-(3-chloro-4,5-difluorophenyl)-1H-1,2,3-triazol-1-yl)-N-(3-chloro-5-cyanophenyl)-5-hydroxy-N-((1R,2R)-2-hydroxycyclopentyl)-6-(hydroxymethyl)-3-methoxytetrahydro-2H-pyran-2-carboxamide] | 103 nM
CO[C@@H]1[C@@H](n2cc(-c3cc(F)c(F)c(Cl)c3)nn2)[C@@H](O)[C@@H](CO)O[C@H]1C(=O)N(c1cc(Br)cc(C#N)c1)[C@H]1CCC[C@@H]1O [Example 1.7.5, (2R,3R,4S,5R,6R)-N-(3-bromo-5-cyanophenyl)-4-(4-(3-chloro-4,5-difluorophenyl)-1H-1,2,3-triazol-1-yl)-5-hydroxy-N-((1S,2S)-2-hydroxycyclopentyl)-6-(hydroxymethyl)-3-methoxytetrahydro-2H-pyran-2-carboxamide] | 21.2 nM
CO[C@@H]1[C@@H](n2cc(-c3cc(F)cc(Cl)c3)nn2)[C@@H](O)[C@@H](CO)O[C@H]1C(=O)N(c1cc(Br)cc(C#N)c1)[C@H]1CCC[C@@H]1O [Example 1.9.5, (2R,3R,4S,5R,6R)-N-(3-bromo-5-cyanophenyl)-4-(4-(3-chloro-5-fluorophenyl)-1H-1,2,3-triazol-1-yl)-5-hydroxy-N-((1S,2S)-2-hydroxycyclopentyl)-6-(hydroxymethyl)-3-methoxytetrahydro-2H-pyran-2-carboxamide] | 22.9 nM
CO[C@@H]1[C@@H](n2cc(-c3cc(F)cc(Br)c3)nn2)[C@@H](O)[C@@H](CO)O[C@H]1C(=O)N(c1cc(Cl)cc(C#N)c1)[C@@H]1CCC[C@H]1O [Example 1.10.4R, (2R,3R,4S,5R,6R)-4-(4-(3-bromo-5-fluorophenyl)-1H-1,2,3-triazol-1-yl)-N-(3-chloro-5-cyanophenyl)-5-hydroxy-N-((1R,2R)-2-hydroxycyclopentyl)-6-(hydroxymethyl)-3-methoxytetrahydro-2H-pyran-2-carboxamide] | 699 nM
CO[C@@H]1[C@@H](n2cc(-c3cc(F)cc(Br)c3)nn2)[C@@H](O)[C@@H](CO)O[C@H]1C(=O)N(c1cc(F)cc(C#N)c1)[C@H]1CCC[C@@H]1O [Example 1.10.7, (2R,3R,4S,5R,6R)-4-(4-(3-bromo-5-fluorophenyl)-1H-1,2,3-triazol-1-yl)-N-(3-cyano-5-fluorophenyl)-5-hydroxy-N-((1S,2S)-2-hydroxycyclopentyl)-6-(hydroxymethyl)-3-methoxytetrahydro-2H-pyran-2-carboxamide] | 146 nM
CO[C@@H]1[C@@H](n2cc(-c3cc(F)cc(Br)c3)nn2)[C@@H](O)[C@@H](CO)O[C@H]1C(=O)N(c1cc(F)cc(C#N)c1)[C@@H]1CCC[C@H]1O [Example 1.10.7R, (2R,3R,4S,5R,6R)-4-(4-(3-bromo-5-fluorophenyl)-1H-1,2,3-triazol-1-yl)-N-(3-cyano-5-fluorophenyl)-5-hydroxy-N-((1R,2R)-2-hydroxycyclopentyl)-6-(hydroxymethyl)-3-methoxytetrahydro-2H-pyran-2-carboxamide] | 1030 nM
CO[C@@H]1[C@@H](n2cc(-c3ccc(C)c(F)c3F)nn2)[C@@H](O)[C@@H](CO)O[C@H]1C(=O)N(c1cc(Cl)cc(Cl)c1)[C@H]1CCC[C@@H]1O [Example 1.11.2, (2R,3R,4S,5R,6R)-N-(3,5-dichlorophenyl)-4-(4-(2,3-difluoro-4-methylphenyl)-1H-1,2,3-triazol-1-yl)-5-hydroxy-N-((1S,2S)-2-hydroxycyclopentyl)-6-(hydroxymethyl)-3-methoxytetrahydro-2H-pyran-2-carboxamide] | 15.1 nM
